# Data published in PMC1904258, “X-ray Structures of the Signal Recognition Particle Receptor Reveal Targeting Cycle Intermediates” (PLoS ONE, 2007).
# Biological target: T1, FtsY (T. aquaticus) (Thermus aquaticus, UniProt P83749)
# T1 construct: FtsY retaining N-terminal helix N1 (naturally lacks A-domain), NG domains; expressed in E. coli BL21(DE3) from pET21; apo/GMPPNP NCS dimer in crystal
# T1 sequence (P83749 1-304): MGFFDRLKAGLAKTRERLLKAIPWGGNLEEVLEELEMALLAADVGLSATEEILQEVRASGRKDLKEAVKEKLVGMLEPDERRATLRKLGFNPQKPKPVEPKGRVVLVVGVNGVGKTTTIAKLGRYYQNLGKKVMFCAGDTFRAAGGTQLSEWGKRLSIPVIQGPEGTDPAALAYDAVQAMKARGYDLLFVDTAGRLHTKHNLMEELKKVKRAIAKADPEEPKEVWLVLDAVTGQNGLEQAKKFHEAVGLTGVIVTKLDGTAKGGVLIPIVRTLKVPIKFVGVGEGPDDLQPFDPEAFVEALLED
# Experiment: X-ray crystal structure of complex ([…] and […] Å)
# Assay type: binding
# Conditions: non-hydrolysable GTP analogue; form I (F1, 2.2 Å) grown with MgCl2, no ordered Mg2+; form II (F2, 2.3 Å) without Mg2+; GTPase active site, one monomer of the dimer
smiles,measurement,value
Nc1nc2c(ncn2[C@@H]2O[C@H](COP(=O)(O)OP(=O)(O)NP(=O)(O)O)[C@@H](O)[C@H]2O)c(=O)[nH]1 [GMPPNP],X-ray crystal structure of complex (2.2 and 2.3 Å),one monomer in apo-FtsY and the other FtsY monomer bound with GMPPNP
